{
  "source": "patent US10662476B2",
  "about": "(priority 2011, dated 2020)",
  "key": {"[1]": {"experiment": "Blood concentrations of morphine glucuronides by ABCC3 -211C>T genotype", "settings": "for ratio to morphine concentration: heterozygous or homozygous ABCC3 -211C>T versus wild-type; for mean concentration at sampling time 10 to 15 minutes: wild-types (C/C) versus heterozygous and homozygous ABCC3 -211C>T, after single morphine dose"}, "[2]": {"test_system": "children after tonsillectomy", "experiment": "Pain intensity before and after codeine (0-100 visual analog scale)", "format": "in vivo, human", "settings": "POD 0-2; 0-100 VAS, 45-60 minutes after dose; SE 2"}, "[3]": {"test_system": "women following cesarean section", "settings": "cited from earlier work"}, "[4]": {"test_system": "children after tonsillectomy", "experiment": "Codeine-related adverse drug reactions at home after tonsillectomy (parent diary)", "settings": "with every one point increase in CYP2D6 TAS; POD 0-2"}, "children following T/TA": {"test_system": "children following T/TA", "settings": "cited from earlier work"}},
  "note": "Read-outs that look alike come from different tables or passages of the source.",
  "data": [
    {"smiles": "CN1CC[C@]23c4c5ccc(O[C@@H]6O[C@H](C(=O)O)[C@@H](O)[C@H](O)[C@H]6O)c4O[C@H]2[C@@H](O)C=C[C@H]3[C@H]1C5", "note": "[M3G, Morphine-3-glucuronide]", "values": [
      {"measurement": "ratio to morphine concentration", "setting": "[1]", "value": "significantly lower"},
      {"measurement": "mean concentration at sampling time 10 to 15 minutes", "setting": "[1]", "value": "higher"}
    ]},
    {"smiles": "CN1CC[C@]23c4c5ccc(O)c4O[C@H]2[C@@H](O[C@@H]2O[C@H](C(=O)O)[C@@H](O)[C@H](O)[C@H]2O)C=C[C@H]3[C@H]1C5", "note": "[M6G, morphine-6-glucuronide]", "values": [
      {"measurement": "ratio to morphine concentration", "setting": "[1]", "value": "significantly lower"},
      {"measurement": "blood concentration at sampling time 10 to 15 minutes", "setting": "[1]; twelve out of 105 children, all carrying the ABCC3 -211C>T variant, below lower quantitative limit", "value": "< 1", "unit": "ng/mL"},
      {"measurement": "mean concentration at sampling time 10 to 15 minutes", "setting": "[1]", "value": "higher"}
    ]},
    {"smiles": "COc1ccc2c3c1O[C@H]1[C@@H](O)C=C[C@H]4[C@@H](C2)N(C)CC[C@@]341", "note": "[codeine]", "values": [
      {"measurement": "reduction of pain intensity (average)", "setting": "[2]", "value": 28, "unit": "points"},
      {"measurement": "reported analgesia", "setting": "[3]; two patients with CYP2D6 TAS >3, discontinued due to ADRs", "value": "significant pain relief"},
      {"measurement": "reported analgesia", "setting": "[3]; two patients with CYP2D6 TAS=0", "value": "no analgesia"},
      {"measurement": "increase of predicted number of ADRs", "setting": "[4]", "value": 0.41},
      {"measurement": "children withdrawn from study due to intolerable side effects", "setting": "children following T/TA; PRN administration following T/TA", "value": 6.7, "unit": "%"},
      {"measurement": "children withdrawn from study due to intolerable side effects", "setting": "children following T/TA; around-the-clock (ATC) administration following T/TA", "value": 17.4, "unit": "%"}
    ]}
  ]
}
